Legend:
[1] = tested on: Caco (colon); assay: Cytotoxicity on human cells, automated nuclei counting: Caco; type: cell-based; conditions: exposed 24 h to 48 h, 0.1 to 25 μM
Outline: (§1)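 Automated image analysis quantified cytotoxicity after cells, plated at 4.10^3 per well and grown 24 hours, were treated with increasing compound concentrations. DMSO vehicle never exceeded 1%.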

[2] = tested on: fibroblast; assay: Cytotoxicity on human cells, automated nuclei counting: fibroblast; type: cell-based; conditions: exposed 24 h to 48 h, 0.1 to 25 μM
Outline: as §1

[3] = target: DYRK1A (Homo sapiens, UniProt Q13627); assay: DYRK1A kinase inhibition (Woodtide substrate)
[4] = tested on: PC3 (prostate); assay: Cytotoxicity on human cells, automated nuclei counting: PC3; type: cell-based; conditions: PC-3, exposed 24 h to 48 h, 0.1 to 25 μM
Outline: as §1

[5] = target: GSK-3αβ; assay: GSK-3 kinase inhibition (GS-1 substrate); conditions: read-out: IC50 μM Kinases GSK3, buffer A, 30° C., 15 μM ATP
[6] = target: T1, CDK5/D25 (Homo sapiens, UniProt Q00535); assay: CDK5 kinase inhibition (33P-ATP, histone H1); type: biochemical; conditions: buffer C, 30° C., 15 μM ATP, read-out: IC50 μM Kinases CDK5
T1 construct: made in house
T1 sequence (Q00535 whole entry): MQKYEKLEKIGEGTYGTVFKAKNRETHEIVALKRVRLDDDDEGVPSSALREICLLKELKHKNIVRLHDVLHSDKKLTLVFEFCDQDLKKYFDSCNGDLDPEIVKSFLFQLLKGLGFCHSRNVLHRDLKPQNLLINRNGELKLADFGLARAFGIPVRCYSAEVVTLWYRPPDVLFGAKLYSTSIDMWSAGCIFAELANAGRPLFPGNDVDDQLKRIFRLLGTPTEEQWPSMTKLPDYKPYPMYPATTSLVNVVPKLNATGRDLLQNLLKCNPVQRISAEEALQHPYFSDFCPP
T1 sequence (Q15078 99-307 partner limits assumed): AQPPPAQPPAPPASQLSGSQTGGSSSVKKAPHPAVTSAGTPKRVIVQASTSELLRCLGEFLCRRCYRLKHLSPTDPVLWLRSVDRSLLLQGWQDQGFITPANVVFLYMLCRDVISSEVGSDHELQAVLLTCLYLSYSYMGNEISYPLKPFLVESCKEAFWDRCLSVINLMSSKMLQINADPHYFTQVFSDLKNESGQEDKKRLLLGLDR
Outline: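 Kinase reactions ran in buffer C (25 mM Mops pH 7.2, 15 mM MgCl2, 1 mM DTT, phosphatase inhibitors) with [33P]-ATP for 30 min at 30° C. Phosphorylated substrate was captured on P81 phosphocellulose filters, washed in phosphoric acid and counted by scintillation.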

[7] = tested on: Huh7 (liver); assay: Cytotoxicity on human cells, automated nuclei counting: Huh7; type: cell-based; conditions: Huh-7, exposed 24 h to 48 h, 0.1 to 25 μM
Outline: as §1

[8] = tested on: MDA-MB 231 (breast); assay: Cytotoxicity on human cells, automated nuclei counting: MDA-MB 231; type: cell-based; conditions: MDA-MB 231 cells, exposed 24 h to 48 h, 0.1 to 25 μM
Outline: as §1

[9] = tested on: HCT 116 (colon); assay: Cytotoxicity on human cells, automated nuclei counting: HCT 116; type: cell-based; conditions: HCT 116 cells, exposed 24 h to 48 h, 0.1 to 25 μM
Outline: as §1

[10] = tested on: NCI (lung); assay: Cytotoxicity on human cells, automated nuclei counting: NCI; type: cell-based; conditions: exposed 24 h to 48 h, 0.1 to 25 μM
Outline: as §1

[11] = target: CDK1/cyclin B; assay: CDK1/cyclin B kinase inhibition (33P-ATP, histone H1); type: biochemical, sea star; conditions: buffer C, 30° C., 15 μM ATP, read-out: IC50 μM Kinases CDK1
Description: The protein kinase inhibition activities of the compounds of the invention are tested according to the following general procedure:
Buffer C: 60 mM β-glycerophosphate, 15 mM p-nitrophenyl-phosphate, 25 mM Mops (pH 7.2), 5 mM EGTA, 15 mM mgCl2, 1 mM DTT, 1 mM sodium vanadate and 1 mM phenylphosphate.
The controls were made with suitable dilutions of DMSO.
ATP (3.000 Ci/mmol.; 10 mCi/mL) in a final volume of 30 μL. After 30 mins of incubation at 30° C., 25 μL of supernatant aliquots were deposited on phosphocellulose Whatman P81 paper pieces of 2.5×3 cm, and after 20 seconds, the filters were washed five times (for at least 5 minutes each time) in a solution of 10 mL of phosphoric acid/1 litre of water. The wet filters were counted in the presence of 1 mL of scintillation fluid ACS (Amersham).

Row | IC50 [3] | IC50 [5] | IC50 [6] | melting point | IC50 [11] | Compound | IC50 [1] | IC50 [2] | IC50 [4] | IC50 [7] | IC50 [8] | IC50 [9] | IC50 [10]
1 | > 10 µM | 0.033 µM | 0.24 µM | 242 °C | 0.22 µM | O=C(Nc1ccccn1)Nc1cccc2c1C1CC3(CCN1C2=O)SCCS3 (centres unmarked) [Compound 16, 1-(6′-oxo-3′,4′,6′,10b′-tetrahydro-1′H-spiro[[1,3]dithiolane-2,2′-pyrido[2,1-a]isoindole]-10′-yl)-3-(pyridin-2-yl)urea] | 15 µM | > 25 µM | 6 µM | 15 µM | 20 µM | 10 µM | 25 µM
2 | > 10 µM | 0.044 µM | 0.15 µM | 236 °C | 0.13 µM | O=C(Nc1cnccn1)Nc1cccc2c1C1CC3(CCN1C2=O)SCCS3 (centres unmarked) [Compound 17, 1-(6′-Oxo-3′,4′,6′,10b′-tetrahydro-1′H-spiro[[1,3]dithiolane-2,2′-pyrido[2,1-a]isoindole]-10′-yl)-3-(pyrazin-2-yl)urea] | 0.5 µM | 0.8 µM | 0.6 µM | 0.1 µM | 0.15 µM | 0.1 µM | 0.4 µM
3 | > 10 µM | 0.27 µM | 1.5 µM | 248 °C | > 10 µM | O=C(Nc1cc(-c2ccccc2)on1)Nc1cccc2c1C1CCCCN1C2=O (centres unmarked) [Compound 25, 1-(6-oxo-1,2,3,4,6,10b-hexahydropyrido[2,1-a]isoindol-10-yl)-3-(5-phenyl-isoxazol-3-yl)urea] | 0.1 µM | 0.1 µM | 0.1 µM | 0.25 µM | 0.2 µM | 0.03 µM | 1.5 µM
4 | ≥ 100 µM | > 10 µM | > 10 µM | 212 °C |  | O=C1c2cccc(NC(=S)Nc3ncccn3)c2C2CCCCN12 (centres unmarked) [Compound 65, 1-(6-Oxo-1,2,3,4,6,10b-hexahydropyrido[2,1-a]isoindol-10-yl)-3-(pyrimidin-2-yl)thiourea] | 20 µM | > 25 µM | > 25 µM | > 25 µM | 25 µM | > 25 µM | > 25 µM
5 | 92 µM | 4.5 µM | 8.1 µM | 195 °C |  | O=C1c2cccc(NC(=S)Nc3cccc(Br)n3)c2C2CCCCN12 (centres unmarked) [Compound 67, 1-(6-Bromopyridin-2-yl)-3-(6-oxo-1,2,3,4,6,10b-hexahydropyrido[2,1-a]isoindol-10-yl)thiourea] | 3 µM | 10 µM | 8 µM | 10 µM | 4 µM | 2 µM | 12 µM
6 | > 10 µM | > 10 µM | > 10 µM | 128 °C |  | O=C1c2cccc(NC(=S)Nc3cnccn3)c2C2CC3(CCN12)SCCS3 (centres unmarked) [Compound 69, 1-(6′-Oxo-3′,4′,6′,10b′-tetrahydro-1′H-spiro[[1,3]dithiolane-2,2′-pyrido[2,1-a]isoindole]-10′-yl)-3-(pyrazin-2-yl)thiourea] | 4 µM | 25 µM | > 25 µM | > 25 µM | 10 µM | 15 µM | > 25 µM
7 | 22 µM | 2.5 µM | 19 µM | 142 °C |  | O=C1c2cccc(NC(=S)Nc3ccccn3)c2C2CC3(CCN12)SCCS3 (centres unmarked) [Compound 70, 1-(6′-Oxo-3′,4′,6′,10b′-tetrahydro-1′H-spiro[[1,3]dithiolane-2,2′-pyrido[2,1-a]isoindole]-10′-yl)-3-(pyridin-2-yl)thiourea] | 2 µM | 20 µM | > 25 µM | 15 µM | 3 µM | 2 µM | 10 µM
8 | > 10 µM | > 10 µM | > 10 µM | 185 °C |  | O=C1c2cccc(NC(=S)Nc3cc[nH]n3)c2C2CC3(CCN12)SCCS3 (centres unmarked) [Compound 71, 1-(6′-Oxo-3′,4′,6′,10b′-tetrahydro-1′H-spiro[[1,3]dithiolane-2,2′-pyrido[2,1-a]isoindole]-10′-yl)-3-(1H-pyrazol-3-yl)thiourea] | 15 µM | 25 µM | > 25 µM | 20 µM | 15 µM | 7 µM | 15 µM
9 | > 10 µM | 3 µM | > 10 µM | 215 °C |  | O=C1c2cccc(NC(=S)Nc3ncccc3Br)c2C2CC3(CCN12)SCCS3 (centres unmarked) [Compound 74, 1-(3-Bromopyridin-2-yl)-3-(6′-oxo-3′,4′,6′,10b′-tetrahydro-1′H-spiro[[1,3]dithiolane-2,2′-pyrido[2,1-a]isoindole]-10′-yl)thiourea] | 20 µM | 25 µM | 15 µM | 10 µM | > 25 µM | 25 µM | 12 µM
10 | 3 µM | 0.17 µM | 0.48 µM | 220 °C |  | O=C(Nc1cccc2c1C1CCCCN1C2=O)Nc1ncccc1Br (centres unmarked) [Compound 75, 1-(3-Bromopyridin-2-yl)-3-(6-oxo-1,2,3,4,6,10b-hexahydropyrido[2,1-a]isoindol-10-yl)urea] | 5 µM | 0.6 µM | 7 µM | 0.25 µM | 1.5 µM | 0.4 µM | 2 µM
11 |  | 0.23 µM | 1.6 µM | 175 °C | 25 µM | COc1ccc(NC(=O)Nc2cccc3c2C2CCCCN2C3=O)cn1 (centres unmarked) [Compound 96, N-(6-Methoxypyridin-3-yl)-M-(6-oxo-1,2,3,4,6,10b-hexahydropyrido[2,1-a]isoindol-10-yl)urea] | 0.8 µM | 1.5 µM | 0.6 µM | 0.5 µM | 0.2 µM | 0.2 µM | 0.6 µM
12 | > 10 µM | 0.032 µM | 0.084 µM | 250 °C |  | O=C(Nc1cnccn1)Nc1cccc2c1C1C[C@@H](O)CCN1C2=O (stereo partly drawn) [Compound 105, 1-((2S)-2-Hydroxy-6-oxo-1,2,3,4,6,10b-hexahydropyrido[2,1-a]isoindol-10-yl)-3-(pyrazin-2-yl)urea] | > 25 µM | 12 µM | 20 µM | 4 µM | 25 µM | 8 µM | 8 µM
13 | > 10 µM | 0.035 µM | 4.9 µM | > 260 °C |  | COc1cc(NC(=O)Nc2cccc3c2C2CC(O)CCN2C3=O)nc2ccccc12 (centres unmarked) [Compound 109, 1-(2-Hydroxy-6-oxo-1,2,3,4,6,10b-hexahydropyrido[2,1-a]isoindol-10-yl)-3-(4-methoxyquinolin-2-yl)urea] | 15 µM | 5 µM | 5 µM | 1 µM | 6 µM | 1 µM | 1 µM

— patent publication US20120095022A1, “DERIVATIVES OF 10-AMINO-1,2,3,4-TETRAHYDROPYRIDO[2,1-A]ISOINDOL-6(10BH)-ONES, METHOD FOR PREPARATION THEREOF AND THERAPEUTIC USES THEREOF” (UNIVERSITE D'ORLEANS, priority 2009, published 2012)
